Test results taken from PMC3237616 (Molecular Biology of the Cell, 2011).

Tested on: PIK (PI4K; phosphatidylinositol 4-kinase)
Assay: radiometric PtdInsP formation from […]-ATP, Lineweaver-Burk
Assay type: biochemical, Mus musculus
Conditions: co-substrate 32P-ATP; 25 °C; 10 min; cell homogenate; without added c-Fos

Km: 254 µM
Substance: PtdIns
